This note sets out measurements from PubChem BioAssay AID1259408 (Genetic Toxicology Data Bank (GENE-TOX), 2018).

This series concerns GENE-TOX genotoxicity assays, various organisms and cells. Description: GENE-TOX mutagenicity studies. The note with it: Evaluation Type: Evaluation A (Pre-1980); for call: Assay Type: In vivo carcinogenicity studies.
[1] abbreviates: Species/Cell Type: Drosophila melanogaster, Assay Type: Sex-linked recessive lethal gene mutation, Assay Code: SRL+.
[2] abbreviates: Species/Cell Type: Nonhuman, Assay Code: CCG+.

Active and inactive are the calls of the source. How the calls were made is not given here.

As for `CCOS(C)(=O)=O`, the mutagenic call by setting is: (Species/Cell Type: Arabidopsis species, Assay Type: Gene mutation, Assay Code: ARM+D, Dose Response: With dose response) “active; positive”; (Species/Cell Type: Aspergillus nidulans, Assay Type: Forward gene mutation, Assay Code: ASF+) “active; positive”; (Species/Cell Type: Aspergillus nidulans, Assay Type: Reverse gene mutation, Assay Code: ASR+) “active; positive”; (Species/Cell Type: Chinese hamster lung (V79) cells, Assay Type: Forward gene mutation at the HPRT or ouabain locus, Assay Code: V79+) “active; positive”; (Species/Cell Type: Chinese hamster ovary (CHO) cells, Assay Type: Forward gene mutation at the HPRT locus, Assay Code: CHO+D, Dose Response: With dose response) “active; positive”; under setting [1], “active; positive”. Also, the mutagenic call by setting is: (Species/Cell Type: Drosophila melanogaster, Sex: Male, Assay Type: Heritable translocation test, chromosome aberrations, Assay Code: DHT+) “active; positive”; (Species/Cell Type: Escherichia coli WP2, Assay Type: Tryptophan reverse gene mutation, Assay Code: WP2+) “active; positive”; (Species/Cell Type: Escherichia coli WP2 UVRA, Assay Type: Tryptophan reverse gene mutation, Assay Code: WPU+) “active; positive”; (Species/Cell Type: Escherichia coli polA (W3119 vs P3478), Assay Type: Rec-assay, DNA effects (bacterial DNA repair), Assay Code: RE1+) “active; positive”; (Species/Cell Type: F1 mouse, Sex: Male, Assay Type: Sperm morphology, Assay Code: SPF+) “active; positive”; (Species/Cell Type: Glycine max (soybean), Assay Type: Gene mutation, Assay Code: GLM+) “active; positive”. For the same compound, the mutagenic call runs as follows: (Species/Cell Type: Hordeum vulgare (barley), Assay Type: Chromosome aberrations, Assay Code: HOC+D, Dose Response: With dose response) “active; positive”; (Species/Cell Type: Hordeum vulgare (barley), Assay Type: Gene mutation, Assay Code: HOM+D, Dose Response: With dose response) “active; positive”; (Species/Cell Type: Human diploid fibroblasts, Assay Type: Unscheduled DNA synthesis (UDS) in vitro, DNA effects, Assay Code: UDH+D, Dose Response: With dose response) “active; positive”; (Species/Cell Type: Human lymphocytes, Assay Type: Micronucleus test in vitro, chromosome aberrations, Assay Code: MN7+) “active; positive”; (Species/Cell Type: Human lymphocytes, Assay Type: Sister-chromatid exchange (SCE) in vitro, Assay Code: SCL+) “active; positive”; (Species/Cell Type: Human, Assay Type: Sister-chromatid exchange (SCE) in vitro, Assay Code: SC1+D, Dose Response: With dose response) “active; positive”. The mutagenic call is “no conclusion” (Species/Cell Type: Mammalian germ cells, Sex: Male, Assay Type: Chromosome aberrations in vivo, Assay Code: CY9T); “active; positive” (Species/Cell Type: Mammalian polychromatic erythrocytes, Assay Type: Micronucleus test, chromosome aberrations, Assay Code: MNT+); “active; positive” (Species/Cell Type: Mouse germ cells, Sex: Male, Assay Type: Unscheduled DNA synthesis (UDS) in vivo, DNA effects, Assay Code: UDT+); “active; positive” (Species/Cell Type: Mouse lymphoma (L5178Y) cells, Assay Type: Forward gene mutation at the thymidine kinase (TK) locus, chromosome aberrations, Assay Code: L51+); “active; positive” (Species/Cell Type: Mouse, Sex: Female, Assay Type: Spot test, gene mutation, Assay Code: MST+); “active; positive” (Species/Cell Type: Mouse, Sex: Male, Assay Type: Heritable translocation test, chromosome aberrations, Assay Code: HTT+D, Dose Response: With dose response). Further, the mutagenic call (Species/Cell Type: Mouse, Sex: Male, Assay Type: Specific locus test, gene mutation, Assay Code: SLT+) was “active; positive”; the mutagenic call (Species/Cell Type: Mouse, Sex: Male, Assay Type: Sperm morphology, Assay Code: SPI+) is “active; positive”; the mutagenic call (Species/Cell Type: Neurospora crassa, Assay Type: Aneuploidy, chromosome aberrations, Assay Code: NEN-) is “inactive; negative”; the mutagenic call (Species/Cell Type: Neurospora crassa, Assay Type: Forward gene mutation, Assay Code: NEF+) was “active; positive”; the mutagenic call (Species/Cell Type: Neurospora crassa, Assay Type: Reverse gene mutation, Assay Code: NER+) is “active; positive”; the mutagenic call (Species/Cell Type: Nonhuman bone marrow, Assay Type: Chromosome aberrations, in vivo, Assay Code: CY#+) is “active; positive”. Moreover, the mutagenic call (Species/Cell Type: Nonhuman, Assay Type: Sister-chromatid exchange (SCE) in vitro, Assay Code: SC2+D, Dose Response: With dose response) was “active; positive”; the mutagenic call (Species/Cell Type: Nonhuman, Assay Type: Sister-chromatid exchange (SCE) in vivo, Assay Code: SC3+D, Dose Response: With dose response) was “active; positive”; the mutagenic call (Species/Cell Type: Plant, Assay Type: Micronucleus test, chromosome aberrations, Assay Code: MNP-) was “inactive; negative”; the mutagenic call (Species/Cell Type: Rodents, Sex: Male, Assay Type: Dominant lethal test, Assay Code: DLT+D, Dose Response: With dose response) was “active; positive”; the mutagenic call (Species/Cell Type: Saccharomyces cerevisiae, Assay Type: Aneuploidy, chromosome aberrations, Assay Code: YEN+) was “active; positive”; the mutagenic call (Species/Cell Type: Saccharomyces cerevisiae, Assay Type: Forward gene mutation, Assay Code: YEF+) was “active; positive”. In addition, the mutagenic call reads like this: (Species/Cell Type: Saccharomyces cerevisiae, Assay Type: Mitotic recombination or gene conversion, Assay Code: YEC+) “active; positive”; (Species/Cell Type: Saccharomyces cerevisiae, Assay Type: Mitotic recombination or gene conversion, Assay Code: YEH+) “active; positive”; (Species/Cell Type: Saccharomyces cerevisiae, Assay Type: Reverse gene mutation, Assay Code: YER+) “active; positive”; (Species/Cell Type: Salmonella typhimurium (one or more of the five standard strains: TA98, TA100, TA1535, TA1537, and TA1538), Assay Type: Histidine reverse gene mutation, Ames assay, Assay Code: SAL+) “active; positive”; (Species/Cell Type: Salmonella typhimurium, Escherichia coli, Serratia marcesens, Neurospora crassa, Saccharomyces cerevisiae, Chinese hamst, Assay Type: Forward and reverse gene mutation, lethal mutation, mitotic recombination and gene conversion, DNA effects, host-mediate, Assay Code: HM8+) “active; positive”; (Species/Cell Type: Schizosaccharomyces pombe, Assay Type: Forward gene mutation, Assay Code: YEY+) “active; positive”. In addition, the mutagenic call reads like this: (Species/Cell Type: Schizosaccharomyces pombe, Assay Type: Reverse gene mutation, Assay Code: YEZ+) “active; positive”; (Species/Cell Type: Syrian hamster embryo (SA7/SHE) cells, Assay Type: Cell transformation, viral enhanced, Assay Code: CT7+) “active; positive”; (Species/Cell Type: Syrian hamster embryo (SHE) cells, Assay Type: Cell transformation, clonal assay, Assay Code: CTC+) “active; positive”; (Species/Cell Type: Syrian hamster embryo (SHE) cells, Assay Type: Cell transformation, focus assay, Assay Code: CTF+) “active; positive”; (Species/Cell Type: Tradescantia species, Assay Type: Chromosome aberrations, Assay Code: TRC+D, Dose Response: With dose response) “active; positive”; (Species/Cell Type: Tradescantia species, Assay Type: Gene mutation, Assay Code: TRM+D, Dose Response: With dose response) “active; positive”. Further, the mutagenic call was “active; positive” (Species/Cell Type: Vicia faba, Assay Type: Chromosome aberrations, Assay Code: VIC+D, Dose Response: With dose response) and “active; positive” (Species/Cell Type: Zea mays (corn), Assay Type: Gene mutation, Assay Code: ZEM+D, Dose Response: With dose response). Further, the call under setting [2] is “active; positive”.

As to `CC(Br)CBr` (stereo not given), under setting [1], the mutagenic call is “active; positive”.

Turning to `CC(=O)Nc1ccc(-c2ccc(NC(C)=O)cc2)cc1`, the call under setting [2] is “active; positive”.

Turning to `c1ccc2c(c1)Oc1ccccc1O2`, under “Species/Cell Type: Nonhuman, Assay Code: CCG-L”, the call is “inactive; negative”.

For `CCN(CCCCO)N=O`, the mutagenic call (Species/Cell Type: Salmonella typhimurium (one or more of the five standard strains: TA98, TA100, TA1535, TA1537, and TA1538), Assay Type: Histidine reverse gene mutation, Ames assay, Assay Code: SALT) is listed as “no conclusion”.
